Reference: patent publication US8512695B2 (priority 2008, dated 2013)
Like-named read-outs stand apart in the source and are kept apart here.

How the values were obtained:
adipocytes of fat grafts = experiment: Apoptosis quantification in explanted fat grafts (Mito-PT / Apo-One fluorescent labels, plate reader); format: in vivo; details: for apoptosis level (words): early engraftment period, first ten days
Method: Apoptosis Identification. Immunochemistry apoptosis specific fluorescent labels FLIVO™ and MT Mito™ were used to identify apoptosis in adipocytes. Fat grafts were explanted, treated with Blendzyme (Roche Applied Science Liberase Blendzyme 3) at 38° C. for 20 minutes, and passed through a 100 micron cell strainer (to remove extra-cellular stromal elements left behind after digestion). These cells were then incubated for one hour at 38° C., and washed once following labeling. Afterwards these cells were placed into 96 well black plates, and read on a plate reader (Molecular Devices, SpectraMax M2) at their dye-specific emission and excitation wavelengths (FLIVO-red ex 565/em>590, MITO-PT ex 488/em green 530, red 590).
Fat Processing. Lipoaspirate was taken directly from the operating room. It was separated into 30 cc aliquots, and washed once with an equal volume of normal saline to remove blood and cellular debris. Afterwards, the tubes were centrifuged at 200G and the middle layer was separated and treated with various agents. These agents were treated in 30 cc washes, with 30 cc of fat for 30 minutes at 37° C. This incubation was chosen to minimize ischemic time while allowing for sufficient mixing with treatment agents. Following incubation and washing, the fat was again centrifuged at 200G. The middle fat layer was again separated and placed in 1.0 cc, 1.0 g aliquots for injection into the flanks of nude mice. This was performed under IRB approval for use of de-identified discarded tissue. Of note, the harvesting cannulas and harvesting pressures varied case by case and surgeon by surgeon. Fat was engrafted into animals within two hours of collection from the operating room in order to minimize warm ischemia time.
Experimental Model. Nude mice were implanted with 1.0 cc/1.0 g (+/−0.01 gm) fat grafts in a single lobule. These mice were injected with a 14 gauge angio-catheter to simulate a clinically relevant 1 cc injection. Two lobules were implanted into bilateral flanks of each nude mouse used in the study. The 14 gauge angio-catheter was chosen to minimize fat graft trauma during injection. Many clinicians use 16 and 14 gauge catheters currently for fat grafting, thus this size catheter was used to approximate clinical practice.
Initially, the lobules were explanted daily and measured for weight and apoptotic activity. After early curves were generated, lobules were explanted on days 3, 6, and 9, for the primary measurement of apoptosis levels. Additionally these samples were weighed, sent for histology, and measured for DNA content. Endpoints in the first ten days were compared to endpoints at six weeks to determine whether graft performance can be accurately predicted by early apoptosis and cell death.
Each experiment consisted of an early group and a late group of mice. Each group was injected with the same fat from a single patient on a single day. For the early time points two animals were euthanized on each sampling day for each group (n=4 lobules per each early time point). Additionally, animals from these same groups were then euthanized at six weeks for examination of late endpoints (8 animals generating 16 lobules were used for each group of late time points). Once an animal was euthanized, both lobules were collected analyzed, and the animal was removed from the study.
Apoptosis Quantification. Initially, lobules were explanted daily and measured for levels of apoptosis using Mito-PT. After daily testing, it was noted that peak levels of apoptosis occurred between days 5-7, and then trended back down. These values fell approximately in a bell shaped curve. Once this curve was determined, subsequent samples were tested on days 0, 3, 6, and 9, for a sampling of early apoptosis (see FIG. 7).

fat grafts [1] = experiment: Weight / reabsorption by weight of 1.0 cc/1.0 g fat grafts; format: in vivo, nude mice
Method: (§1) Fat Processing. Lipoaspirate was taken directly from the operating room. It was separated into 30 cc aliquots, and washed once with an equal volume of normal saline to remove blood and cellular debris. Afterwards, the tubes were centrifuged at 200G and the middle layer was separated and treated with various agents. These agents were treated in 30 cc washes, with 30 cc of fat for 30 minutes at 37° C. This incubation was chosen to minimize ischemic time while allowing for sufficient mixing with treatment agents. Following incubation and washing, the fat was again centrifuged at 200G. The middle fat layer was again separated and placed in 1.0 cc, 1.0 g aliquots for injection into the flanks of nude mice. […] Fat was engrafted into animals within two hours of collection from the operating room in order to minimize warm ischemia time.
Each experiment consisted of an early group and a late group of mice. […] For the early time points two animals were euthanized on each sampling day for each group (n=4 lobules per each early time point). Additionally, animals from these same groups were then euthanized at six weeks for examination of late endpoints (8 animals generating 16 lobules were used for each group of late time points). Once an animal was euthanized, both lobules were collected analyzed, and the animal was removed from the study.

fat grafts [2] = format: in vivo
Method: as §1
Experimental Model. Nude mice were implanted with 1.0 cc/1.0 g (+/−0.01 gm) fat grafts in a single lobule. […]
Initially, the lobules were explanted daily and measured for weight and apoptotic activity. […] Additionally these samples were weighed, sent for histology, and measured for DNA content. […]
Each experiment consisted of an early group and a late group of mice. […] Once an animal was euthanized, both lobules were collected analyzed, and the animal was removed from the study.

[3] = Day 3, comparison experiments of FIG. 8
[4] = Day 6, comparison experiments of FIG. 8
[5] = agents tested for potential additive effects with P188, saline in this group 0.74 g

Compound: O=C(O)CCCC[C@@H]1CCSS1 (racemic) [lipoic acid]
- apoptosis level (words) (adipocytes of fat grafts): decreased apoptosis during the engraftment period when compared to saline treated controls
- weight at six weeks (fat grafts [1]; 1.0 cc/1.0 g graft implanted, six weeks): 0.65 ± 0.09 g
- reabsorption by weight (fat grafts [1]; six weeks): statistically significant differences in reabsorption

Compound: CCCCCCCCCCCCCCCC[N+](C)(C)C.[Cl-] [CTA, cetyltrimethylammonium chloride]
- apoptosis level (adipocytes of fat grafts; [3]): 35,338 RFUs
- apoptosis level (adipocytes of fat grafts; [4]): 35,338 RFUs
- apoptosis level (words) (adipocytes of fat grafts): higher levels of apoptosis than normal saline controls at earlier time points

Compound: CCCCCCCCCCCCCCCC[N+](C)(C)C.[Br-] [HCTA, Hexadecyltrimethylammonium bromide]
- apoptosis level (adipocytes of fat grafts; [3]): 31,076 RFUs
- apoptosis level (adipocytes of fat grafts; [4]): 41,037 RFUs
- apoptosis level (words) (adipocytes of fat grafts): higher levels of apoptosis than normal saline controls at earlier time points

Compound: CC(C)CCC[C@@H](C)[C@H]1CC[C@H]2[C@@H]3CC=C4C[C@@H](O)CC[C@]4(C)[C@H]3CC[C@]12C [cholesterol]
- weight at six weeks (fat grafts [1]; [5]): 0.73 ± 0.04 g
- overall effect on / toxicity to fat grafts (fat grafts [2]; conclusion over early and late endpoints): toxic

Compound: Oc1ccc(C=Cc2cc(O)cc(O)c2)cc1 [resveratrol]
- weight at six weeks (fat grafts [1]; [5]): 0.73 ± 0.03 g
- overall effect on / toxicity to fat grafts (fat grafts [2]; mouse, in vivo): toxic

Compound: O=C1O[C@H]([C@@H](O)CO)C(O)=C1O [vitamin C, ascorbic acid]
- apoptosis level (words) (adipocytes of fat grafts): high levels of apoptosis

Compound: Phosphatidylcholine [PC]
- apoptosis level (adipocytes of fat grafts; [3]): 52,000 RFUs
- apoptosis level (words) (adipocytes of fat grafts; listed as Phosphatidylcholine): elevated levels of apoptosis compared to P188
- apoptosis level (words) (adipocytes of fat grafts; listed as phosphatidylcholine): some protective effect, but not to the same magnitude as P188
